We go through 19 compounds from ChEMBL document CHEMBL1135665, “Synthesis and biological evaluation of 14-alkoxymorphinans. 17. Highly delta opioid receptor selective 14-alkoxy-substituted indolo- and benzofuromorphinans” (J Med Chem, 2002).

A value given as a limit tells only on which side of the number the result lay.

For experiment [1], the target named is T1, Kappa-type opioid receptor (Cavia porcellus, UniProt P41144). The experiment in a line: Binding affinity at kappa opioid receptor 1 in guinea pig brain by [3H]U-69593 displacement.
T1 sequence (P41144 whole entry): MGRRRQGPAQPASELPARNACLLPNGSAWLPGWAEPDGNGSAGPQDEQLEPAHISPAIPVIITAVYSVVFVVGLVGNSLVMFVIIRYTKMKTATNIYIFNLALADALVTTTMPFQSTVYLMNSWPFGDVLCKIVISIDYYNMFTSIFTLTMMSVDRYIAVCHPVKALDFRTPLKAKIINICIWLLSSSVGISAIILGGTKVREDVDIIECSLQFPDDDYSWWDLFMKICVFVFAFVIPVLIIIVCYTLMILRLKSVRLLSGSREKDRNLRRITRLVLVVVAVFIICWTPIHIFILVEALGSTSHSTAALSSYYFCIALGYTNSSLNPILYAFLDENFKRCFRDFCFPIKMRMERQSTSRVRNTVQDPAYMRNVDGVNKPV
Experiment [2] addresses T2, Delta-type opioid receptor (Rattus norvegicus, UniProt P33533). In words: Binding affinity at delta opioid receptor 1 in rat brain membrane by [3H]DADLE displacement. The class given is cell membranes.
The target of experiment [3] is Mu-type opioid receptor (Rattus norvegicus, UniProt P33535). The experiment in a line: Binding affinity at mu opioid receptor 1 in rat brain membrane by [3H]DAMGO displacement. The class given is cell membranes.
Mu-type opioid receptor (Rattus norvegicus, UniProt P33535), sequence (P33535 whole entry): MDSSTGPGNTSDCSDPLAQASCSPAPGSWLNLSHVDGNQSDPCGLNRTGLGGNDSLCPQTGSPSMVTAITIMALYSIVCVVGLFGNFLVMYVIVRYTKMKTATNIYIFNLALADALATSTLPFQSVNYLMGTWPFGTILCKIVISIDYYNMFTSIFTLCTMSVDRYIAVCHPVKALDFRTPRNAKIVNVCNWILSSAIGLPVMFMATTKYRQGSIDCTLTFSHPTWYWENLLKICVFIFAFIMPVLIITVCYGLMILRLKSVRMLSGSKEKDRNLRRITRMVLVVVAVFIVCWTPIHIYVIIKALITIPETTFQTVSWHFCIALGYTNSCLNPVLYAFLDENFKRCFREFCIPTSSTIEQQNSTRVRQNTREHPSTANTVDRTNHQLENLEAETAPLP
The species named for another experiment is Rattus norvegicus. In words: Selectivity ratio (Ki value towards kappa receptor compared to that of delta receptor).
In experiment [4] the target is Opioid receptors; mu & delta (Rattus norvegicus) (UniProt P33533+P33535). The experiment in a line: Selectivity ratio (Ki value towards mu receptor compared to that of delta receptor). The class given is protein assay.
Opioid receptors; mu & delta (Rattus norvegicus), sequence (P33533 whole entry, looked up): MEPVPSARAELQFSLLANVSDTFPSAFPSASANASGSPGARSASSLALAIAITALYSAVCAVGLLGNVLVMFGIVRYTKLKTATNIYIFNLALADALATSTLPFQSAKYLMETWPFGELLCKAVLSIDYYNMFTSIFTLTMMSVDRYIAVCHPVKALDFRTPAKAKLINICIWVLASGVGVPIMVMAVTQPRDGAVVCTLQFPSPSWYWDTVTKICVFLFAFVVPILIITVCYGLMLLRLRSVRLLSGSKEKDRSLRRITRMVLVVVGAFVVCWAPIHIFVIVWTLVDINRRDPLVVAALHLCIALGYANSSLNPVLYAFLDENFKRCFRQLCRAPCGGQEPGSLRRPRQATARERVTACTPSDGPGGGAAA
Opioid receptors; mu & delta (Rattus norvegicus), sequence (P33535 whole entry, looked up): as the sequence (P33535 whole entry) above
The target in experiment [5] is Mu-type opioid receptor (Cavia porcellus, UniProt P97266). In words: The ability of compound to inhibit [35S][…] binding in guinea pig caudate stimulated by DAMGO (Opioid receptor mu 1) antagonist. The class given is functional.
Mu-type opioid receptor (Cavia porcellus, UniProt P97266), sequence (P97266 whole entry): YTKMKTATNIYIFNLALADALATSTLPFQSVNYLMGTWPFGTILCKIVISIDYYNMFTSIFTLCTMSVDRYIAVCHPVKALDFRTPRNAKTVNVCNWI
The target of experiment [6] is T1, Kappa-type opioid receptor. In words: The ability of compound to inhibit [35S][…] binding in guinea pig caudate stimulated by U69,593 (Opioid receptor kappa 1) antagonist. The class given is functional.
For experiment [7], the target named is T2, Delta-type opioid receptor. In words: Opioid receptor delta 1 binding affinity was determined by inhibition of binding of [3H]DADLE to rat brain membrane.

T2 sequence (P33533 whole entry): as the sequence (P33533 whole entry, looked up) above

As a reminder, the Ki is the dissociation constant of the complex between target and ligand, obtained from inhibition or displacement. Read a low Ki as a stronger hold on the target. Take `CCCN1CC[C@]23c4c5ccc(O)c4O[C@H]2c2c(c4ccccc4n2C)C[C@@]3(OC)[C@H]1C5`: the results for the inhibition constant Ki (in experiment [1]; in experiment [2]; at Mu-type opioid receptor [3]) were 115 nM, 11.5 nM and 106 nM, respectively. Besides, the figures for the Selectivity (in the experiment listed under Rattus norvegicus; in experiment [4]) were 10 and 9.2, respectively.
For `C=CCO[C@@]12Cc3c(n(CC=C)c4ccccc34)[C@@H]3Oc4c(O)ccc5c4[C@@]31CCN(CC=C)[C@@H]2C5` the same measures were 763 nM, 7.3 nM, 1000 nM, 105 and 137.
The matching figures for `CCO[C@@]12Cc3c([nH]c4ccccc34)[C@]3(C)Oc4c(O)ccc5c4[C@@]31CCN(CC1CCC1)[C@@H]2C5`: 378 nM, 12.6 nM, 409 nM, 30 and 32.
The matching figures for `CO[C@@]12Cc3c([nH]c4ccccc34)[C@]3(C)Oc4c(O)ccc5c4[C@@]31CCN(C)[C@@H]2C5`: 1530 nM, 3.95 nM, 58 nM, 387 and 15.
As to `C=CCN1CC[C@]23c4c5ccc(O)c4O[C@H]2c2[nH]c4ccccc4c2C[C@@]3(OCC)[C@H]1C5`, the inhibitory constant (Ki) is more than 10000 nM at Mu-type opioid receptor [5]; more than 10000 nM in experiment [6]; 349 nM in experiment [1]; 2.6 nM in experiment [2]; 1370 nM on Mu-type opioid receptor [3]. Also, the results for the Selectivity (in the experiment listed under Rattus norvegicus; in experiment [4]) were 134 and 526, respectively.
For the compound `CCO[C@@]12Cc3c([nH]c4ccccc34)[C@]3(C)Oc4c(O)ccc5c4[C@@]31CCN(C)[C@@H]2C5`, the figures for the inhibition constant Ki (in experiment [1]; in experiment [2]; at Mu-type opioid receptor [3]) were 725 nM, 3.9 nM and 515 nM, respectively. For the same compound, the figures for the Selectivity (in the experiment filed under Rattus norvegicus; in experiment [4]) were 186 and 132, respectively.
Regarding `C=CCN1CC[C@]23c4c5ccc(O)c4O[C@H]2c2c(c4ccccc4n2C)C[C@@]3(OC)[C@H]1C5`, the Ki was 149 nM in experiment [1], 1.97 nM in experiment [2] and 731 nM on Mu-type opioid receptor [3].
Consider `CCCO[C@@]12Cc3c([nH]c4ccccc34)[C@]3(C)Oc4c(O)ccc5c4[C@@]31CCN(C)[C@@H]2C5`, for which the values for the Ki (in experiment [1]; in experiment [2]; at Mu-type opioid receptor [3]) were 556 nM, 5.3 nM and 30 nM, respectively. For the same compound, the Selectivity in the experiment filed under Rattus norvegicus came out at 105; in experiment [4] it was 5.7.
For the compound `C=CCN1CC[C@]23c4c5ccc(O)c4O[C@H]2c2[nH]c4ccccc4c2C[C@@]3(OC)[C@H]1C5`, the Ki in experiment [1] was 233 nM; in experiment [2] it was 3.8 nM; at Mu-type opioid receptor [3] it was 869 nM. In addition, the Selectivity in the experiment listed under Rattus norvegicus turned out to be 61; in experiment [4], 229.
In the case of `C=CCN1CC[C@]23c4c5ccc(O)c4O[C@H]2c2oc4ccccc4c2C[C@@]3(OCC)[C@H]1C5`, the Ki in experiment [1] worked out at 68 nM; in experiment [2], 1.2 nM; at Mu-type opioid receptor [3] it was 22.8 nM. The values for the Selectivity (in the experiment filed under Rattus norvegicus; in experiment [4]) were 57 and 19, respectively.
With `CO[C@@]12Cc3c([nH]c4ccccc34)[C@@H]3Oc4c(O)ccc5c4[C@@]31CCN(CC1CCCCC1)[C@@H]2C5`, the inhibition constant Ki in experiment [1] came to 3250 nM; in experiment [2], 370 nM; at Mu-type opioid receptor [3], 14000 nM. The Selectivity was determined as 8.8 in the experiment filed under Rattus norvegicus and 38 in experiment [4].
For `CC(C)CCO[C@@]12Cc3c([nH]c4ccccc34)[C@]3(C)Oc4c(O)ccc5c4[C@@]31CCN(C)[C@@H]2C5` the same measures were 1260 nM, 12.8 nM, 238 nM, 99 and 19.
As for `C=CCN1CC[C@]23c4c5ccc(O)c4O[C@H]2c2c(c4ccccc4n2Cc2ccccc2Cl)C[C@@]3(OCc2ccccc2Cl)[C@H]1C5`, the Ki in experiment [1] amounted to 721000 nM; in experiment [2], 151 nM; on Mu-type opioid receptor [3] it was 1230 nM. Also, the Selectivity in the experiment filed under Rattus norvegicus was found to be 4800; in experiment [4] it was 8.2.
As for `Oc1ccc2c3c1O[C@H]1c4[nH]c5ccccc5c4C[C@@]4(O)[C@@H](C2)N(CC2CC2)CC[C@]314` [NALTRINDOLE], the figures for the Ki in experiment [1] and in experiment [2] were 15.8 nM and 0.81 nM, respectively.
With `CCO[C@@]12Cc3c(oc4ccccc34)[C@@H]3Oc4c(O)ccc5c4[C@@]31CCN(CC1CC1)[C@@H]2C5`, the Ki is more than 10000 nM at Mu-type opioid receptor [5]; more than 10000 nM in experiment [6]; 94 nM in experiment [1]; 1.18 nM in experiment [2]; 185 nM on Mu-type opioid receptor [3]. The Selectivity in the experiment listed under Rattus norvegicus stood at 80; in experiment [4], 157.
In the case of `CCO[C@@]12Cc3c([nH]c4ccccc34)[C@]3(C)Oc4c(O)ccc5c4C31CCN(CC1CC1)[C@@H]2C5`, the Ki on Mu-type opioid receptor [5] was more than 10000 nM; in experiment [6], more than 10000 nM; in experiment [1] it was 134 nM; in experiment [2], 4.4 nM; on Mu-type opioid receptor [3], 340 nM. Further, the Selectivity in the experiment listed under Rattus norvegicus came out at 30; in experiment [4], 77.
As to `CN1CC[C@]23c4c5ccc(O)c4O[C@H]2c2[nH]c4ccccc4c2C[C@@]3(O)[C@H]1C5` [OXYMORPHINDOLE], the Ki in experiment [1] came to 395 nM; in experiment [7] it was 2 nM; at Mu-type opioid receptor [3] it was 171 nM. In addition, the Selectivity in the experiment filed under Rattus norvegicus turned out to be 198; in experiment [4], 86.
`CCCO[C@@]12Cc3c(n(CCC)c4ccccc34)[C@@H]3Oc4c(O)ccc5c4[C@@]31CCN(CC1CC1)[C@@H]2C5`: the Ki in experiment [1] came to 3.1 nM; in experiment [2] it was 1.28 nM; on Mu-type opioid receptor [3], 14.8 nM. Further, the values for the Selectivity (in the experiment filed under Rattus norvegicus; in experiment [4]) were 2.4 and 12, respectively.
Regarding `CCCO[C@@]12Cc3c([nH]c4ccccc34)[C@]3(C)Oc4c(O)ccc5c4[C@@]31CCN(CC1CC1)[C@@H]2C5`, the inhibition constant (Ki) in experiment [1] was determined as 504 nM; in experiment [2] it was 5.3 nM; at Mu-type opioid receptor [3], 555 nM. In addition, the values for the Selectivity (in the experiment filed under Rattus norvegicus; in experiment [4]) were 95 and 105, respectively.
